Results from publication PMC5571359, “Screening the Medicines for Malaria Venture Pathogen Box across Multiple Pathogens Reclassifies Starting Points for Open-Source Drug Discovery” (Antimicrobial Agents and Chemotherapy, 2017).
Where two headings read alike, the source gives them in different places.

Assays:
HepG2 = settings: cited from earlier work
[1] = test system: T. b. brucei 427 bloodstream trypanosomes; assay: T. b. brucei resazurin viability assay; type: cell-based, Trypanosoma brucei brucei; settings: Trypanosoma brucei, read-out: T b.brucei Discovery Biology IC50 µM
P. falciparum ABS = settings: cited from earlier work; for EC50: ChEMBL Data, P. falciparum, read-out: TCMDC (ref 93) EX50
[2] = test system: Plasmodium falciparum 3D7 asexual blood stage; assay: microbe, parasite or virus in culture
[3] = test system: NF54-pfs16-LUC-GFP stage IV gametocytes; assay: Plasmodium falciparum late stage gametocyte (LSG) image-based assay; type: cell-based; settings: Plasmodium falciparum
HEK293 cells = assay: HEK293 resazurin cell cytotoxicity assay; settings: Homo sapiens
[4] = test system: T. cruzi intracellular amastigotes; assay: Intracellular anti-Trypanosoma cruzi image-based assay (amastigotes); type: cell-based; settings: Trypanosoma cruzi; for IC50: intracellular amastigotes
[5] = test system: T. cruzi C4 β-galactosidase reporter parasite in MRC 5SV2 host cells; settings: ref Pbox supporting information; read-out: T. cruzi Pbox IC50; cited from earlier work
[6] = read-out: HepG2 PBox CC50 µM, HepG2 cytotoxicity, ref PBox supporting information
[7] = 3D7, read-out: Antiplasmodial IC50 (ABS), PBox compounds, P. falciparum 3D7
[8] = HepG2, ref PBox supporting information
[9] = ref Pbox supporting information
[10] = NF54, read-out: Antiplasmodial IC50 (GAM / LSG), PBox compounds, stage IV gametocytes, single determination
[11] = HEK293, read-out: HEK % Inhibition 20uM/IC50 Discovery Biology

**Q.** With `CCCn1nnc(NC(=O)COc2ccc(C3CCCCC3)cc2)n1` [MMV676597] as the compound, how does the CC50 (HepG2; [6]) read?
**A.** The CC50 was greater than 100 µM.

**Q.** For `Cc1ccc2oc(-c3cc(NC(=O)Cc4ccccc4)ccc3Cl)nc2c1` [MMV676509], which CC50 (HepG2; [6]) is on record?
**A.** The CC50 was 83.6 µM.

**Q.** For `Cc1nn(Cc2ccccc2)c(Cl)c1C(=O)NC1CCCCCC1` [MMV063404], which CC50 (HepG2) is on record?
**A.** The CC50 was greater than 100 µM.

**Q.** For `Cc1ccc2[nH]c(C3CCCNC3)c(-c3ccncc3)c2c1` (centres unmarked) [MMV024311], which IC50 [1] is on record?
**A.** Its IC50 is 5.15 µM.

**Q.** And the EC50 (P. falciparum ABS; TCMDC set)?
**A.** Its EC50 is 1.23 µM.

**Q.** What about the CC50 (HepG2; [6]) of the same compound?
**A.** The CC50 was 12.7 µM.

**Q.** And the IC50 [2, 7]?
**A.** Its IC50 is 0.75 µM.

**Q.** Which “HepG2 PBox CC20” value (HepG2; [8]) does the source give for `COc1cc(NC(=O)Cc2nn(C)c(=O)c3ccccc23)ccc1Cl` [MMV676053] here?
**A.** The value was greater than 80 µM.

**Q.** For `CC1(C)OB(O)c2ccc(C3=NOC(c4cc(Cl)c(F)c(Cl)c4)(C(F)(F)F)C3)cc21` (centres unmarked) [MMV687775], which “HepG2 PBox CC20 μMc” value (HepG2) is on record?
**A.** Its value is 15.4 µM.

**Q.** For `CCCCOC(=O)Nc1cc2nc(C3CCCCC3)[nH]c2cc1N1CCCC1` [MMV687730], which CC50 (HepG2; [6]) is on record?
**A.** The CC50 was 26.8 µM.

**Q.** For `Oc1c(I)cc(I)c2cccnc12` [MMV002817], which “HepG2 PBox CC20 μMc” value (HepG2; [9]) is on record?
**A.** The value was 2.5 µM.

**Q.** Which “HepG2 PBox CC20” value (HepG2; [8]) does the source give for `CC(C)C(Oc1cccc2ccccc12)C(=O)O` (centres unmarked) [MMV676191] here?
**A.** The value was greater than 80 µM.

**Q.** With `CCS(=O)(=O)N(Cc1ccco1)Cc1cc2ccc(C)cc2nc1O` [MMV676398] as the compound, how does the “HepG2 PBox CC20 μMc” value (HepG2; [9]) read?
**A.** Its value is greater than 80 µM.

**Q.** With `O=C(NCc1ccoc1)N1CCN(Cc2ccc3c(c2)OCO3)CC1` [MMV688553] as the compound, how does the CC50 (HepG2; read-out: HepG2 PBox CC50, HepG2, ref PBox supporting information) read?
**A.** Its CC50 is greater than 100 µM.

**Q.** Which results are given for `Cc1cccc(-c2nc(Nc3ccncn3)c3sccc3n2)n1` [MMV688122]?
**A.** IC50 [3, 10]: 0.11 µM; CC50 (HepG2; [6]): 14.3 µM; IC50 [2, 7]: 2.11 µM

**Q.** For `CC(C)c1ncc(-c2ccncc2)c([C@H]2CC[C@H](CNC(=O)c3cccnc3)CC2)n1` [MMV676442], which EC50 (P. falciparum ABS) is on record?
**A.** The EC50 was 0.78 µM.

**Q.** And the IC50 (P. falciparum ABS; P. falciparum 3D7, ref PBox supporting information, read-out: Pf 3D7 Pbox IC50)?
**A.** The IC50 was 0.84 µM.

**Q.** What about the IC50 (HEK293 cells; HEK293, read-out: HEK % Inhibition 20uM/IC50 Discovery Biology (IA)) of the same compound?
**A.** The IC50 was greater than 20 µM.

**Q.** Which Emax ([4]; PBox kinetoplastid set compounds active against T. cruzi alone, read-out: Emax against T. cruzi (subefficacious effect)) does the source give for `O=C([C@@H](c1ccc(Cl)cc1)c1cccnc1)N1CCN(c2ccc(C(F)(F)F)cc2)CC1` [MMV689244] here?
**A.** The Emax was less than 100%.

**Q.** What about the IC50 ([4]; read-out: T cruzi Discovery Biology IC50) of the same compound?
**A.** Its IC50 is 0.12 µM.

**Q.** And the IC50 [5]?
**A.** Its IC50 is 0.0075 µM.

**Q.** And the “HepG2 PBox CC20” value (HepG2; [8])?
**A.** Its value is 19.0 µM.

**Q.** And the IC50 (HEK293 cells; [11])?
**A.** Its IC50 is greater than 20 µM.

**Q.** With `CCCCc1ccc(C(=O)Nc2nccc3ccccc23)nc1` [MMV687254] as the compound, how does the CC50 (HepG2; [6]) read?
**A.** The CC50 was 73.8 µM.

**Q.** Which CC50 (HepG2; [6]) does the source give for `Cc1cc(C)c2cc(C(=O)NC3CCCCCCC3)[nH]c2c1` [MMV687146] here?
**A.** Its CC50 is greater than 100 µM.

**Q.** Which IC50 [3, 10] does the source give for `COc1cccc(-c2nc3c(N4CCCC4)cccc3n2CC2CCCN2)n1` (centres unmarked) [MMV687703] here?
**A.** Its IC50 is 3.83 µM.

**Q.** And the CC50 (HepG2; [6])?
**A.** Its CC50 is 25 µM.

**Q.** And the IC50 [2, 7]?
**A.** The IC50 was 1.33 µM.

**Q.** What about the IC50 ([2]; 3D7, read-out: activity against P. falciparum (novel antiplasmodial actives of the tuberculosis set)) of the same compound?
**A.** The IC50 was less than 2 µM.

**Q.** And the inhibition at 20 µM (HEK293 cells; [11])?
**A.** The inhibition at 20 µM was 76%.

**Q.** Which IC50 ([4]; PBox compounds, 48 h exposure, read-out: IC50 T. cruzi (Discovery Biology)) does the source give for `CNc1cc(C)nc(C2CN(C(=O)c3n[nH]c4ccccc34)CCO2)c1` (centres unmarked) [MMV689709] here?
**A.** The IC50 was 3.32 µM.

**Q.** What about the IC50 [5] of the same compound?
**A.** The IC50 was 3.89 µM.

**Q.** And the IC50 (HEK293 cells; [11])?
**A.** Its IC50 is greater than 20 µM.

**Q.** With `COC(=O)c1c(NC(=O)c2c(F)c(F)c(F)c(F)c2F)sc2c1CCCCC2` [MMV461553] as the compound, how does the CC50 (HepG2; [6]) read?
**A.** Its CC50 is 7.5 µM.

**Q.** For `Cc1cccc(Cn2ccc(NC(=O)c3ccc4c(c3)OCO4)n2)c1` [MMV676386], which CC50 (HepG2; [6]) is on record?
**A.** The CC50 was greater than 100 µM.

**Q.** With `O=C(NC1CCCCC1)N1CCN(Cc2ccc3c(c2)OCO3)CC1` [MMV676444] as the compound, how does the CC50 (HepG2; [6]) read?
**A.** The CC50 was greater than 100 µM.

**Q.** Which EC50 (P. falciparum ABS; TCMDC set) does the source give for `c1cncc(NCc2ccc(-c3cc4ccncc4cc3OC3CCNCC3)s2)c1` [MMV023969] here?
**A.** Its EC50 is 0.98 µM.

**Q.** What about the CC50 (HepG2; [6]) of the same compound?
**A.** The CC50 was 8 µM.

**Q.** What about the IC50 [2, 7] of the same compound?
**A.** The IC50 was 0.59 µM.

**Q.** And the inhibition at 20 µM (HEK293 cells; [11])?
**A.** Its inhibition at 20 µM is 86%.

**Q.** Which results are given for `COc1ccc(-c2nn(C(C)C)c3ncnc(N)c23)cc1OC` [MMV675993]?
**A.** IC50 ([3]; NF54, read-out: Pf Stage IV GAMS Discovery Biology IC50, stage IV gametocytes): 1.95 µM; HepG2 PBox CC20 (HepG2; [8]): 1.6 µM; IC50 ([2]; 3D7, read-out: Pf 3D7 Discovery Biology IC50, P. falciparum 3D7 asexual blood stage): 1.07 µM; inhibition at 20 µM (HEK293 cells; [11]): 73%

**Q.** Which results are given for `Cc1cc(NCCc2ccccc2)nc(NC(=N)Nc2ccc(Cl)cc2)n1` [MMV021660]?
**A.** EC50 (P. falciparum ABS; TCMDC set): 0.23 µM; CC50 (HepG2; [6]): 6.5 µM; IC50 [2, 7]: 0.16 µM; inhibition at 20 µM (HEK293 cells; [11]): 100%
